Assay results reported in PubChem BioAssay (NCI).
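Each compound was tested at five concentrations against cells in 96-well plates for 48 hours. TGI marks complete inhibition of growth.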

How the values were obtained:
Assay in all cases: NCI tumour cell line growth inhibition, 48 h
786-0 renal = tested on: 786-0 renal
A498 renal = tested on: A498 renal
A549 NSCLC = tested on: A549 NSCLC
ACHN renal = tested on: ACHN renal
CAKI-1 renal = tested on: CAKI-1 renal
CCRF-CEM leukemia = tested on: CCRF-CEM leukemia
COLO 205 colon = tested on: COLO 205 colon
DLD-1 colon = tested on: DLD-1 colon
DU-145 prostate = tested on: DU-145 prostate
EKVX NSCLC = tested on: EKVX NSCLC
HCC-2998 colon = tested on: HCC-2998 colon
HCT-116 colon = tested on: HCT-116 colon
HCT-15 colon = tested on: HCT-15 colon
HL-60(TB) leukemia = tested on: HL-60(TB) leukemia
HOP-18 NSCLC = tested on: HOP-18 NSCLC
HOP-92 NSCLC = tested on: HOP-92 NSCLC
HT29 colon = tested on: HT29 colon
IGROV1 ovarian = tested on: IGROV1 ovarian
K-562 leukemia = tested on: K-562 leukemia
KM12 colon = tested on: KM12 colon
KM20L2 colon = tested on: KM20L2 colon
LOX IMVI melanoma = tested on: LOX IMVI melanoma
LXFL 529 NSCLC = tested on: LXFL 529 NSCLC
M14 melanoma = tested on: M14 melanoma
M19-MEL melanoma = tested on: M19-MEL melanoma
MALME-3M melanoma = tested on: MALME-3M melanoma
MOLT-4 leukemia = tested on: MOLT-4 leukemia
NCI-H226 lung = tested on: NCI-H226 lung
NCI-H23 lung = tested on: NCI-H23 lung
NCI-H460 lung = tested on: NCI-H460 lung
NCI-H522 lung = tested on: NCI-H522 lung
OVCAR-3 ovarian = tested on: OVCAR-3 ovarian
OVCAR-4 ovarian = tested on: OVCAR-4 ovarian
OVCAR-5 ovarian = tested on: OVCAR-5 ovarian
OVCAR-8 ovarian = tested on: OVCAR-8 ovarian
RPMI-8226 leukemia = tested on: RPMI-8226 leukemia
RXF 393 renal = tested on: RXF 393 renal
SF-268 CNS = tested on: SF-268 CNS
SF-295 CNS = tested on: SF-295 CNS
SF-539 CNS = tested on: SF-539 CNS
SK-MEL-2 melanoma = tested on: SK-MEL-2 melanoma
SK-MEL-28 melanoma = tested on: SK-MEL-28 melanoma
SK-MEL-5 melanoma = tested on: SK-MEL-5 melanoma
SK-OV-3 ovarian = tested on: SK-OV-3 ovarian
SN12C renal = tested on: SN12C renal
SNB-19 CNS = tested on: SNB-19 CNS
SNB-75 CNS = tested on: SNB-75 CNS
SR leukemia = tested on: SR leukemia
SW-620 colon = tested on: SW-620 colon
TK-10 renal = tested on: TK-10 renal
U251 CNS = tested on: U251 CNS
UACC-257 melanoma = tested on: UACC-257 melanoma
UACC-62 melanoma = tested on: UACC-62 melanoma
UO-31 renal = tested on: UO-31 renal
XF 498 CNS = tested on: XF 498 CNS
DMS 114 small cell lung = tested on: DMS 114 small cell lung
DMS 273 small cell lung = tested on: DMS 273 small cell lung
HOP-62 NSCLC = tested on: HOP-62 NSCLC
RXF-631 renal = tested on: RXF-631 renal
SNB-78 CNS = tested on: SNB-78 CNS

Measured: TGI

NS(=O)(=O)c1ccccc1C(=O)N/N=C(\c1nc2ccc([N+](=O)[O-])cc2[nH]c1=O)C(O)c1ccc([N+](=O)[O-])cc1 (stereo not given)
59.2 µM: NCI-H522 lung
not listed: DMS 114 small cell lung | DMS 273 small cell lung | HOP-62 NSCLC | RXF-631 renal | SNB-78 CNS
> 100 µM: all other assays above

O=C1C2=C(SCCS2)C(=O)c2ccccc21
2.96 µM: COLO 205 colon
0.616 µM: M19-MEL melanoma
3.09 µM: SF-539 CNS | SK-MEL-5 melanoma
5.14 µM: K-562 leukemia
3.02 µM: LXFL 529 NSCLC | U251 CNS
3.39 µM: SN12C renal
3.37 µM: UO-31 renal
3.38 µM: NCI-H460 lung
4.07 µM: SK-MEL-2 melanoma
3.32 µM: CAKI-1 renal
5.33 µM: SR leukemia
3.01 µM: OVCAR-4 ovarian | XF 498 CNS
3.83 µM: A549 NSCLC
2.27 µM: LOX IMVI melanoma
2.9 µM: HOP-62 NSCLC
3.34 µM: NCI-H23 lung
3.03 µM: SNB-75 CNS
3.28 µM: RXF-631 renal
3.26 µM: SK-MEL-28 melanoma
3.11 µM: HCC-2998 colon
27.7 µM: MOLT-4 leukemia
4.44 µM: HT29 colon
3.33 µM: M14 melanoma
2.69 µM: EKVX NSCLC
3.31 µM: DMS 273 small cell lung
2.87 µM: SNB-19 CNS
3.57 µM: NCI-H226 lung
2.09 µM: DMS 114 small cell lung
3.45 µM: UACC-257 melanoma
3.17 µM: IGROV1 ovarian | NCI-H522 lung
3.53 µM: DLD-1 colon
3.14 µM: SF-295 CNS
3.08 µM: HCT-15 colon | OVCAR-3 ovarian
3.12 µM: 786-0 renal | SK-OV-3 ovarian
3.18 µM: KM12 colon
3.24 µM: TK-10 renal
6.77 µM: HL-60(TB) leukemia
3.65 µM: A498 renal
3.68 µM: SW-620 colon
3.23 µM: OVCAR-5 ovarian
3.05 µM: ACHN renal | HOP-92 NSCLC | SF-268 CNS
3.2 µM: MALME-3M melanoma
4.2 µM: CCRF-CEM leukemia
3.52 µM: KM20L2 colon
5.35 µM: RPMI-8226 leukemia
3.56 µM: RXF 393 renal
3.04 µM: HCT-116 colon | OVCAR-8 ovarian | UACC-62 melanoma

CC(=O)C(CN(C(C)C)C(C)C)C(c1ccccc1)c1c(O)c2ccccc2oc1=O (stereo not given)
not listed: DU-145 prostate | HCC-2998 colon | HOP-92 NSCLC | XF 498 CNS
> 100 µM: all other assays above

COc1ccccc1NC(=O)CC(=O)n1nc(C)c(N=Nc2ccccc2C(=O)O)c1C
83.5 µM: EKVX NSCLC
not listed: ACHN renal | DU-145 prostate | HOP-18 NSCLC | HOP-92 NSCLC | NCI-H226 lung | RXF 393 renal | SR leukemia | RXF-631 renal
> 100 µM: all other assays above
